The test system of data set [1] is cereals. The experiment in a line: Container trials with cereals in a greenhouse, mefenpyr 1 day before herbicide application. It is filed as in vivo. The protocol: (§1) Seeds of monocotyledonous and dicotyledonous weed and crop plants are placed in sandy loam in wood fibre pots, covered with soil and cultivated in a greenhouse under good growth conditions. Two to three weeks after sowing, the test plants are treated at the one-leaf stage. The test compounds, formulated as wettable powders (WP), are sprayed onto the green parts of the plants in different dosages with a water application rate of 600 l/ha (converted), with 0.2% added wetting agent. After the test plants have been kept in the greenhouse under optimal growth conditions for about three weeks, the effect of the preparations is assessed visually by comparison to untreated controls (herbicidal effect in per cent: 100% effect=the plants have died, 0% effect=like control plants).
(§2) If there is to be an additional test as to whether safeners can improve the plant compatibility of test substances in the case of crop plants, the following options are used for applying the safeners: • Seeds of the crop plants are, before sowing, dressed with safener substance (the amount of safener stated in per cent, based on the weight of the seed) • Before the application of the test substances, the crop plants are sprayed with the safener at a certain application rate per hectare (usually one day before the application of the test substances) • The safener is applied together with the test substance as a tankmix (the amount of safener is stated in g/ha or as a ratio, based on the herbicide).
Container Trials with Cereals in a Greenhouse
Mefenpyr 1 Day Before Herbicide Application

The next data set deals with Maize (Aventura). Description: Container tests with maize-soya-cotton in a greenhouse, cyprosulfamide 1 day before herbicide application. The data set is classed as in vivo. The protocol:
as §1, §2
(§3) Container Tests with Maize-Soya-Cotton in a Greenhouse
(§4) Cyprosulfamide 1 Day Before Herbicide Application

Data set [2] concerns cereals. The experiment in a line: Container trials with cereals in a greenhouse, mefenpyr 1 day before herbicide application. The data set is classed as in vivo. The following applies: 10 days after application, 12.5 g a.i./ha.
Data set [3] deals with green peach aphid (Myzus persicae). The experiment in a line: Myzus test (MYZUPE spray treatment). The following applies: application rate 20 g/ha, Chinese cabbage leaf discs. The data set is classed as in vivo. The protocol: Myzus Test (MYZUPE Spray Treatment)
To prepare an appropriate active ingredient preparation, 1 part by weight of active ingredient is mixed with the stated amounts of solvent and emulsifier, and the concentrate is diluted with emulsifier-containing water to the desired concentration.
Discs of Chinese cabbage (Brassica pekinensis) infected by all stages of the green peach aphid (Myzus persicae) are sprayed with an active ingredient preparation of the desired concentration.
After the desired time, the effect in % is determined. 100% means that all of the aphids have been killed; 0% means that none of the aphids have been killed.

For a further data set, the system named is Maize (Arsenal). Description: Container tests with maize-soya-cotton in a greenhouse, cyprosulfamide 1 day before herbicide application. The data set is classed as in vivo. The protocol: as §1, §2, §3, §4
The next data set deals with Maize (Cecilia). It is filed as in vivo. The protocol: as §1, §2, §3, §4
Data set [4] deals with green peach aphid (Myzus persicae). Description: Enhancement of activity by ammonium/phosphonium salts with penetration enhancers: Myzus persicae test. It is filed as in vivo. The following applies: 0.8 ppm. The protocol: Enhancement of Activity by Ammonium/Phosphonium Salts in Combination with Penetration Enhancers Myzus persicae Test [table] To prepare an appropriate active ingredient preparation, 1 part by weight of active ingredient is mixed with the stated amount of solvent and emulsifier, and the concentrate is diluted to the desired concentration with water. […] Bell pepper plants (Capsicum annuum) heavily infested by the green peach aphid (Myzus persicae) are treated by spraying to runoff point with the active ingredient preparation of the desired concentration.

For data set [5], the system named is cotton aphid (Aphis gossypii). The experiment in a line: Aphis gossypii test (with ammonium salts and penetration enhancers). The data set is classed as in vivo. The following applies: for Kill rate/% after 6 days: active ingredient alone, cotton plants. The protocol:
Aphis gossypsi Test [table] To prepare an appropriate active ingredient preparation, 1 part by weight of active ingredient is mixed with the stated amounts of solvent and emulsifier, and the concentrate is diluted to the desired concentration with emulsifier-containing water. […] Cotton plants (Gossypium hirsutum) heavily infested by the cotton aphid (Aphis gossypii) are treated by spraying to runoff point with the active ingredient preparation of the desired concentration.

Data set [6] can be described thus: log P determination by HPLC/LC-MS on reversed-phase column (C 18). It is filed as physicochemical. The note with it: pH 2.7, 0.1% aqueous formic acid and acetonitrile; for chromatographic logP: reversed-phase column (C 18), pH 2.7, LC-MS acidic range, read-out: log P (HCOOH). The protocol: The log P values reported in the above tables and preparation examples are determined according to EEC Directive 79/831 Annex V.A8 by HPLC (High Performance Liquid Chromatography) on a reversed-phase column (C 18). Temperature: 43° C.
The determination is effected in the acidic range at pH 2.3 with 0.1% aqueous phosphoric acid and acetonitrile as eluent; linear gradient from 10% acetonitrile to 95% acetonitrile.
The determination by LC-MS in the acidic range is effected at pH 2.7 with 0.1% aqueous formic acid and acetonitrile (contains 0.1% formic acid) as the eluent; linear gradient from 10% acetonitrile to 95% acetonitrile.
The determination by LC-MS in the neutral range is effected at pH 7.8 with 0.001 molar aqueous ammonium hydrogen carbonate solution and acetonitrile as the eluent; linear gradient from 10% acetonitrile to 95% acetonitrile.
The calibration is effected with unbranched alkane-2-ones (with 3 to 16 carbon atoms), the log P values of which are known (determination of log P values on the basis of the retention times by linear interpolation between two successive alkanones).

Where [7] appears, read: Summer barley, 28 days after application, 12.5 g a.i./ha.
The mark [8] stands for this setting: Summer barley, 28 days after application, 25 g a.i./ha.
The mark [9] stands for this setting: 28 days after application, 12.5 g a.i./ha.
[10] abbreviates: 28 days after application, 25 g a.i./ha.
Setting [11] is: 28 days after application, 50 g a.i./ha.
[12] abbreviates: 28 days after application, 100 g a.i./ha.
[13] abbreviates: Summer barley, 28 days after application, 50 g a.i./ha.

Like-named read-outs stand apart in the source and are kept apart here.

As to `CCOC1CCCC2(CC1)NC(=O)C(c1c(C)cc(OCC(F)(F)F)cc1CC)=C2O` (stereo not shown) [Example I-1-a-5], the “Summer barley observed (%)” value came to 65% in the data set on cereals [1] (setting [7]) and 95% in the data set with cereals [1] (setting [8]). The “Summer wheat observed (%)” value with cereals [1] (setting [9]) is 65%.

As to `CCc1cc(OCC(F)(F)F)cc(C)c1C1=C(O)C2(CCC3(CC2)OCCO3)NC1=O` [Example I-1-a-6], the results for the “Summer wheat observed (%)” value in the data set on cereals [1] (setting [9]) and in the data set with cereals [1] (setting [10]) were 70% and 85%, respectively.

On to `CCc1cc(OCC(F)(F)F)cc(C)c1C1=C(O)C2(CCC3(CC2)OCC(C)O3)NC1=O` (stereo not shown) [Example I-1-a-7], for which the “Summer wheat observed (%)” value was found to be 50% in the data set on cereals [1] (setting [9]), 50% in the data set on cereals [1] (setting [10]), 70% in the data set with cereals [1] (setting [11]) and 70% with cereals [1] (setting [12]).

Take `CCc1cc(OCC(F)(F)F)cc(C)c1C1=C(O)C2(CCC(C)CC2)NC1=O` (stereo not shown) [Example I-1-a-8]: the “28 days after application Maize (Aventura) observed (%)” value came out at 35% in the data set on Maize (Aventura) (12.5 g a.i./ha), 60% with Maize (Aventura) (25 g a.i./ha) and 70% with Maize (Aventura) (50 g a.i./ha). In addition, the “Summer wheat observed (%)” value is 98% with cereals [1] (setting [9]) and 65% in the data set with cereals [2].

`CCCOC1CCCC2(C1)NC(=O)C(c1c(C)cc(OCC(F)(F)F)cc1CC)=C2O` (stereo not shown) [Example I-1-a-14]: the “Summer wheat observed (%)” value was 93% in the data set with cereals [1] (setting [9]), 99% in the data set on cereals [1] (setting [10]) and 100% in the data set on cereals [1] (setting [11]).

On to `CCCCOC1CCCC2(C1)NC(=O)C(c1c(C)cc(OCC(F)(F)F)cc1CC)=C2O` (stereo not shown) [Example I-1-a-15], for which the “Summer barley observed (%)” value with cereals [1] (setting [7]) is given as 70%; in the data set with cereals [1] (setting [8]), 85%; in the data set with cereals [1] (setting [13]), 97%. The “Summer wheat observed (%)” value was 10% in the data set on cereals [1] (setting [9]), 30% with cereals [1] (setting [10]), 40% in the data set with cereals [1] (setting [11]) and 60% in the data set with cereals [1] (setting [12]).

As to `COCC1CCC2(CC1)NC(=O)C(c1c(C)cc(OCC(F)(F)F)cc1C)=C2O` (stereo not shown) [Example I-1-a-17], the “Summer barley observed (%)” value in the data set with cereals [1] (setting [13]) was 40%; in the data set with cereals [1] (Summer barley, 28 days after application, 100 g a.i./ha), 80%; with cereals [1] (Summer barley, 28 days after application, 200 g a.i./ha) it was 95%.

Regarding `CCCOC1CCCC2(C1)NC(=O)C(c1c(C)cc(OCC(F)(F)F)cc1C)=C2O` (stereo not shown) [Example I-1-a-19], the “Summer barley observed (%)” value in the data set with cereals [1] (setting [8]) was found to be 70%. Moreover, the “Summer wheat observed (%)” value with cereals [1] (setting [9]) came out at 10%; with cereals [1] (setting [10]) it was 20%; with cereals [1] (setting [11]), 70%; in the data set on cereals [1] (setting [12]) it was 85%.

For the molecule `Cc1cc(OCC(F)(F)F)cc(C)c1C1=C(O)C2CCCCN2C1=O` (stereo not shown) [Example I-1-a-20], the “effect in % (aphids killed)” value in data set [3] is at least 80%.

In the case of `COC1CCC2(CC1)NC(=O)C(c1c(C)cc(OCC(F)(F)F)cc1C)=C2O` (stereo not shown) [Example I-1-a-25], the “28 days after application Maize (Arsenal) observed (%)” value is recorded as 5% in the data set on Maize (Arsenal) (12.5 g a.i./ha), 15% in the data set with Maize (Arsenal) (25 g a.i./ha), 75% in the data set on Maize (Arsenal) (50 g a.i./ha) and 100% with Maize (Arsenal) (100 g a.i./ha). The “Summer wheat observed (%)” value in the data set on cereals [1] (setting [9]) was 70%; in the data set with cereals [2], 40%. The “28 days after application Maize (Cecilia) observed (%)” value with Maize (Cecilia) (12.5 g a.i./ha) was found to be 0%; in the data set with Maize (Cecilia) (25 g a.i./ha) it was 10%; in the data set on Maize (Cecilia) (50 g a.i./ha) it was 20%; with Maize (Cecilia) (100 g a.i./ha), 35%. Moreover, the figures for the “Kill rate/% after 6 days +AS (1000 ppm)” value in data set [4] (+AS (1000 ppm)) and in [5] (0.8 ppm) were 0% and 35%, respectively. The “Kill rate/% after 6 days +RME (1000 ppm)” value in [4] (+RME (1000 ppm)) is on record as 40%; in data set [5] (0.8 ppm), 20%. Besides, the “Kill rate/% after 6 days +RME +AS (1000 ppm each)” value (from here on “Kill rate/% … (1000 ppm each)”) in [4] (+RME +AS (1000 ppm each)) is 55%; in [5] (0.8 ppm), 85%. Also, the “Kill rate/% after 6 days” value in [4] (active ingredient alone, bell pepper plants) stood at 0%; in data set [5] (0.8 ppm) it was 0%.

For `COC1CCC2(CC1)NC(=O)C(c1c(C)ccc(OCC(F)(F)F)c1C)=C2O` (stereo not shown) [Example I-1-a-29], in data set [5] (4 ppm), the “Kill rate/% after 6 days +AS (1000 ppm)” value turned out to be 15%, the “Kill rate/% after 6 days +RME (1000 ppm)” value was 80%, the “Kill rate/% … (1000 ppm each)” value came out at 95% and the “Kill rate/% after 6 days” value stood at 10%.

On to `Cc1ccc(OCC(F)(F)F)c(C)c1C1=C(O)C2(CCOCC2)NC1=O` [Example I-1-a-31], for which, in [5] (4 ppm), the “Kill rate/% after 6 days +AS (1000 ppm)” value is 10%, the “Kill rate/% after 6 days +RME (1000 ppm)” value is listed as 5%, the “Kill rate/% … (1000 ppm each)” value is 35% and the “Kill rate/% after 6 days” value is given as 0%.

`CCc1cc(OCC(F)(F)F)cc(C)c1C1=C(O)C2(CCC(C)(OC)CC2)NC1=O` (stereo not shown) [Example I-1-a-37]: the “Summer wheat observed (%)” value in the data set with cereals [1] (setting [9]) is 70%.

Regarding `CO[C@H]1CC[C@]2(CC1)NC(=O)C(c1c(C)cc(OCC(F)(F)F)cc1C)=C2OC(=O)C(C)C` [Example I-1-b-2], the “Summer barley observed (%)” value with cereals [1] (in vivo) turned out to be 50%.

Take `CCOC(=O)OC1=C(c2c(C)cc(OCC(F)(F)F)cc2C)C(=O)NC12CCCC(OCC)C2` (stereo not shown) [Example I-1-c-2]: the results for the “28 days after application Maize (Arsenal) observed (%)” value in the data set on Maize (Arsenal) (25 g a.i./ha), with Maize (Arsenal) (50 g a.i./ha) and with Maize (Arsenal) (100 g a.i./ha) were 20%, 20% and 25%, respectively. Besides, the “28 days after application Maize (Cecilia) observed (%)” value in the data set with Maize (Cecilia) (100 g a.i./ha) is recorded as 75%.

For the molecule `Cc1ccc(OCC(F)(F)F)cc1C1=C(O)C2(CCCC2)OC1=O` [Example I-2-a-1], in data set [6] (LC-MS acidic range), the “log P (HCOOH)” value came out at 2.45. In addition, the chromatographic logP in [6] was determined as 2.59.

Take `Cc1ccc(OCC(F)(F)F)cc1C1=C(OC(=O)C(C)(C)C)C2(CCCC2)OC1=O` [Example I-2-b-1]: in [6], the chromatographic logP is 4.69.

Take `CCOC(=O)C1(OC(=O)Cc2c(C)cc(OCC(F)(F)F)cc2C)CCOCC1` [III-1]: in data set [6], the chromatographic logP came out at 3.78.

As for `Cc1cc(OCC(F)(F)F)cc(C)c1CC(=O)O` [XXXI-1, 2,6-Dimethyl-4-trifluoroethoxyphenylacetic acid], the chromatographic logP in [6] came out at 2.51.

For the origin of these results see patent US9045390B2, “Haloalkylmethyleneoxyphenyl-substituted ketoenols” (Bayer CropScience AG, priority 2009, dated 2015).
